Measurements published in DBAASP.
In brackets after ≈: the same amount, converted by molar mass. Several values for one entry are separate records, joined by “and”; a condition that tells them apart may be missing. Equal values may be shown once. Values belong to the compound of their own block, whether it stands above or below them.

Legend:
Test in all cases: ≥ marks a high value that may be exact or a test limit, other limits are often not marked, values filed in µg/mL are converted to µM
[1] = test system: Acinetobacter baumannii KCTC 2508
[2] = test system: Bacillus subtilis KCTC 2217
[3] = test system: Staphylococcus aureus ATCC 25923
[4] = test system: Bacillus subtilis ATCC 23857
Citrobacter freundii = test system: Citrobacter freundii
Enterobacter cloacae = test system: Enterobacter cloacae
Enterococcus faecalis = test system: Enterococcus faecalis
Escherichia coli NDM-1 = test system: Escherichia coli NDM-1
Escherichia coli O157:H7 = test system: Escherichia coli O157:H7
Klebsiella oxytoca = test system: Klebsiella oxytoca
[5] = test system: Klebsiella pneumoniae NDM-1
Morganella morganii = test system: Morganella morganii
[6] = test system: Pseudomonas aeruginosa ATCC 15692
[7] = test system: Salmonella typhimurium PY1
[8] = test system: Staphylococcus aureus ATCC 1717
[9] = test system: Bacillus amyloliquefaciens ATCC 23842
[10] = test system: Bacillus cereus ATCC 14579
[11] = test system: Bacillus licheniformis ATCC 14580
[12] = test system: Bacillus subtilis ATCC 6051
[13] = test system: Enterococcus faecalis 1F-1
Enterococcus faecalis A4 = test system: Enterococcus faecalis A4
[14] = test system: Enterococcus faecium 4W-9
[15] = test system: Enterococcus faecium 5F-10
[16] = test system: Escherichia coli ATCC 25922
[17] = test system: Proteus mirabilis ATCC 35659
[18] = test system: Pseudomonas aeruginosa PAO1
[19] = test system: Salmonella enterica ATCC H9812
[20] = test system: Staphylococcus aureus 215
[21] = test system: Staphylococcus aureus ATCC 29213
Staphylococcus aureus MR = test system: Staphylococcus aureus MR
[22] = test system: Bacillus subtilis ATCC 11060
[23] = test system: Enterococcus faecalis ATCC 29212
Escherichia coli 078 = test system: Escherichia coli 078
[24] = test system: Escherichia coli CMCC 44102
[25] = test system: Escherichia coli CVCC 1515
Escherichia coli ER2566 = test system: Escherichia coli ER2566
Escherichia coli K88 = test system: Escherichia coli K88
Escherichia coli UB1005 = test system: Escherichia coli UB1005
[26] = test system: Pseudomonas aeruginosa ATCC 10419
[27] = test system: Pseudomonas aeruginosa ATCC 21625
[28] = test system: Pseudomonas aeruginosa ATCC 21630
[29] = test system: Pseudomonas aeruginosa ATCC 27853
[30] = test system: Salmonella enterica subsp. enterica serovar Pullorum C79-13
[31] = test system: Salmonella enterica subsp. enterica serovar Typhimurium ATCC 14028
[32] = test system: Salmonella enterica subsp. enterica serovar Typhimurium C77-31
[33] = test system: Staphylococcus epidermidis ATCC 12228
[34] = test system: Escherichia coli DH5alpha
[35] = test system: Klebsiella pneumoniae KAY 2026
[36] = test system: Staphylococcus aureus Newman
[37] = test system: Staphylococcus epidermidis ATCC 35984
[38] = test system: Streptococcus mutans JM11
[39] = test system: Escherichia coli KpC+001812446
[40] = test system: Escherichia coli KpC+002101123
[41] = test system: Klebsiella pneumoniae ATCC 13883
[42] = test system: Klebsiella pneumoniae KpC+001825971

Compound: CC(C)C[C@H](NC(=O)[C@H](CCCCN)NC(=O)[C@H](CCCCN)NC(=O)[C@H](CC(C)C)NC(=O)[C@H](CC(C)C)NC(=O)[C@H](CCCCN)NC(=O)[C@H](CCCCN)NC(=O)[C@H](CC(C)C)NC(=O)[C@H](CC(C)C)NC(=O)[C@@H]1CCCN1C(=O)[C@H](CCCCN)NC(=O)[C@@H](N)CCCCN)C(N)=O [KKPLLKKLLKKL]
MIC [1]: 25 µM (≈ 36.2 µg/mL)
MIC [2]: 1.56 µM (≈ 2.26 µg/mL)
MIC [3]: 1.56 µM and > 0.78 µM

Compound: CC[C@H](C)[C@H](NC(=O)CN)C(=O)N[C@H](C(=O)N[C@@H](C)C(=O)NCC(=O)N[C@H](C(=O)N[C@H](C(=O)N[C@H](C(=O)N[C@@H](CCCCN)C(=O)N[C@H](C(=O)N[C@@H](CCCCN)C(=O)N[C@@H](CCCCN)C(N)=O)[C@@H](C)CC)[C@@H](C)CC)[C@@H](C)CC)[C@@H](C)CC)[C@@H](C)CC [GIIAGIIIKIKK]
MIC [4]: 8 µM (≈ 10.1 µg/mL)
MIC (Citrobacter freundii): 8 µM (≈ 10.1 µg/mL)
MIC (Enterobacter cloacae): 22.6 µM (≈ 28.6 µg/mL)
MIC (Enterococcus faecalis): 16 µM (≈ 20.3 µg/mL)
MIC (Escherichia coli NDM-1): 16 µM (≈ 20.3 µg/mL)
MIC (Escherichia coli O157:H7): ≥ 32 µM
MIC (Klebsiella oxytoca): 16 µM (≈ 20.3 µg/mL)
MIC [5]: 22.6 µM (≈ 28.6 µg/mL)
MIC (Morganella morganii): ≥ 128 µM
MIC [6]: ≥ 64 µM
MIC [7]: ≥ 64 µM
MIC [8]: ≥ 128 µM

Compound: CC[C@H](C)[C@H](NC(=O)[C@H](CCCCN)NC(=O)[C@H](CCCN=C(N)N)NC(=O)[C@H](CC(C)C)NC(=O)[C@H](Cc1ccccc1)NC(=O)[C@H](CCCN=C(N)N)NC(=O)CNC(=O)[C@H](Cc1ccccc1)NC(=O)[C@@H](N)CCCN=C(N)N)C(=O)N[C@@H](CCCN=C(N)N)C(=O)N[C@@H](CCCN=C(N)N)C(=O)N[C@@H](Cc1ccccc1)C(=O)N[C@@H](CCCN=C(N)N)C(=O)N1CCC[C@H]1C(=O)N[C@@H](CCCCN)C(=O)N[C@H](C(=O)N[C@H](C(=O)N[C@H](C(=O)N[C@H](C(=O)N[C@H](C(=O)N[C@@H](CCC(N)=O)C(=O)NCC(=O)N[C@@H](CO)C(=O)N[C@@H](C)C(=O)N[C@@H](CCCN=C(N)N)C(=O)N[C@@H](Cc1ccccc1)C(=O)NCC(N)=O)[C@@H](C)CC)[C@@H](C)O)[C@@H](C)CC)[C@@H](C)O)C(C)C [RFGRFLRKIRRFRPKVTITIQGSARFG]
MIC [22]: 16 µM (≈ 52.2 µg/mL)
MIC [23]: 16 µM (≈ 52.2 µg/mL)
MIC (Escherichia coli 078): 7.99 µM (≈ 26.1 µg/mL)
MIC [16]: 1.99 µM and 3.83 µM
MIC [24]: 1.01 µM (≈ 3.3 µg/mL)
MIC [25]: 7.99 µM (≈ 26.1 µg/mL)
MIC (Escherichia coli ER2566): 0.49 µM (≈ 1.6 µg/mL)
MIC (Escherichia coli K88): 1.99 µM (≈ 6.5 µg/mL)
MIC (Escherichia coli UB1005): 1.01 µM (≈ 3.3 µg/mL)
MIC [26]: 4.01 µM (≈ 13.1 µg/mL)
MIC [27]: 1.99 µM (≈ 6.5 µg/mL)
MIC [28]: 7.99 µM (≈ 26.1 µg/mL)
MIC [29]: 1.99 µM (≈ 6.5 µg/mL)
MIC [30]: 4.01 µM (≈ 13.1 µg/mL)
MIC [31]: 4.01 µM (≈ 13.1 µg/mL)
MIC [32]: 4.01 µM (≈ 13.1 µg/mL)
MIC [3]: 1.01 µM (≈ 3.3 µg/mL)
MIC [21]: 1.99 µM (≈ 6.5 µg/mL)
MIC [33]: 16 µM (≈ 52.2 µg/mL)

Compound: CC[C@H](C)[C@H](NC(=O)[C@@H](NC(=O)[C@H](CO)NC(=O)[C@H](C)NC(=O)[C@@H](NC(=O)[C@H](CCCCN)NC(=O)[C@H](CCCCN)NC(=O)[C@@H](NC(=O)[C@@H](NC(=O)[C@H](CC(=O)O)NC(=O)[C@H](Cc1ccccc1)NC(=O)[C@H](CC(C)C)NC(=O)CNC(=O)[C@H](Cc1cnc[nH]1)NC(=O)CNC(=O)CN)C(C)C)[C@@H](C)CC)C(C)C)C(C)C)C(=O)NCC(=O)NCC(=O)N[C@@H](CC(C)C)C(N)=O [GGHGLFDVIKKVASVIGGL]
MIC [16]: 34 µM (≈ 63.5 µg/mL)
MIC [39]: ≥ 34 µM
MIC [40]: 9 µM (≈ 16.8 µg/mL)
MIC [41]: ≥ 34 µM
MIC [42]: ≥ 34 µM
MIC [29]: > 34 µM
MIC [3]: 9 µM (≈ 16.8 µg/mL)
MIC (Staphylococcus aureus MR): 17 µM (≈ 31.7 µg/mL)

Next, values leading:

MIC [9]: ≥ 77 µM
MIC [10]: ≥ 77 µM
MIC [11]: ≥ 77 µM
MIC [12]: ≥ 77 µM
MIC [13]: ≥ 154 µM
MIC (Enterococcus faecalis A4): ≥ 154 µM
MIC [14]: ≥ 154 µM
MIC [15]: ≥ 154 µM
MIC [16]: > 154 µM
MIC [17]: ≥ 154 µM
MIC [18]: > 154 µM
MIC [19]: ≥ 154 µM
MIC [20]: 4.81 µM (≈ 4 µg/mL)
MIC [21]: 4.81 µM (≈ 4 µg/mL)
MIC (Staphylococcus aureus MR): 3.4 µM (≈ 2.83 µg/mL)
Compound: CC(C)C[C@H](NC(=O)[C@H](CC(C)C)NC(=O)[C@@H](N)CCC(=O)O)C(=O)N[C@@H](CO)C(=O)N[C@@H](CCCN=C(N)N)C(=O)N[C@H](C(=O)N[C@@H](CC(=O)O)C(=O)O)C(C)C [ELLSRVD]

MIC [34]: 5.47 µM (≈ 8.16 µg/mL)
MIC [35]: 2.98 µM (≈ 4.44 µg/mL)
MIC [6]: 14.4 µM (≈ 21.5 µg/mL)
MIC [36]: 5.62 µM (≈ 8.39 µg/mL)
MIC [37]: 5.11 µM (≈ 7.62 µg/mL)
MIC [38]: 2.86 µM (≈ 4.26 µg/mL)
Compound: CC[C@H](C)[C@H](NC(=O)[C@@H](N)Cc1ccccc1)C(=O)N[C@@H](CCCN=C(N)N)C(=O)N[C@@H](CCCCN)C(=O)N[C@@H](Cc1ccccc1)C(=O)N[C@@H](CC(C)C)C(=O)N[C@@H](CCCCN)C(=O)N[C@@H](CCCCN)C(=O)N[C@@H](Cc1c[nH]c2ccccc12)C(=O)N[C@@H](CC(C)C)C(=O)N[C@@H](CC(C)C)C(N)=O [FIRKFLKKWLL]
